# Experimental data published in PubChem BioAssay (NCI).
#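 GI50 marks 50% less growth. TGI is the concentration that stops growth completely.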
# Tests used:
# Assay in all cases: NCI tumour cell line growth inhibition, 384-well format
# [1] = system: NCI/ADR-RES ovarian
# [2] = system: IGROV1 ovarian
# [3] = system: SNB-19 CNS
# [4] = system: CCRF-CEM leukemia
# [5] = system: ACHN renal
# [6] = system: KM12 colon
# [7] = system: RXF 393 renal
# [8] = system: TK-10 renal
# [9] = system: HCT-116 colon
# [10] = system: OVCAR-3 ovarian
# [11] = system: COLO 205 colon
# [12] = system: A549 NSCLC
# [13] = system: BT-549 breast
# [14] = system: LOX IMVI melanoma
# [15] = system: NCI-H226 lung
# [16] = system: T-47D breast
# [17] = system: UACC-257 melanoma
# [18] = system: SK-MEL-5 melanoma
# [19] = system: UO-31 renal
# [20] = system: SK-OV-3 ovarian
# [21] = system: HOP-62 NSCLC
# [22] = system: MCF7 breast
# [23] = system: SF-295 CNS
# [24] = system: HCC-2998 colon
# [25] = system: OVCAR-8 ovarian
# [26] = system: PC-3 prostate
# [27] = system: SF-539 CNS
# [28] = system: SN12C renal
# [29] = system: NCI-H322M lung
# [30] = system: HS 578T breast
# [31] = system: SF-268 CNS
# [32] = system: EKVX NSCLC
# [33] = system: CAKI-1 renal
# [34] = system: HCT-15 colon
# [35] = system: SR leukemia
# [36] = system: HL-60(TB) leukemia
# [37] = system: A498 renal
# [38] = system: NCI-H23 lung
# [39] = system: 786-0 renal
# [40] = system: NCI-H522 lung
# [41] = system: MOLT-4 leukemia
# [42] = system: OVCAR-4 ovarian
# [43] = system: MDA-MB-468 breast
# [44] = system: U251 glioblastoma
# [45] = system: DU-145 prostate
# [46] = system: SK-MEL-28 melanoma
# [47] = system: SW-620 colon
# [48] = system: HOP-92 NSCLC
# [49] = system: HT29 colon
# [50] = system: SNB-75 CNS
# [51] = system: NCI-H460 NSCLC
# [52] = system: MDA-MB-231 breast
# [53] = system: OVCAR-5 ovarian
# [54] = system: MALME-3M melanoma
# [55] = system: M14 melanoma
# [56] = system: K-562 leukemia
# [57] = system: RPMI-8226 leukemia
smiles,measurement,setting,value
Cc1ccccc1CN1CC2=C(CCN(Cc3ccccc3)C2=O)N2CCN=C12,GI50,[1],1.39 µM
same,TGI,[1],7.8 µM
same,GI50,[2],53.8 µM
same,TGI,[2],> 100 µM
same,GI50,[3],2.98 µM
same,TGI,[3],> 100 µM
same,GI50,[4],1.04 µM
same,TGI,[4],> 100 µM
same,GI50,[5],6.02 µM
same,TGI,[5],> 100 µM
same,GI50,[6],6.87 µM
same,TGI,[6],> 100 µM
same,GI50,[7],4.17 µM
same,TGI,[7],28 µM
same,GI50,[8],6.47 µM
same,TGI,[8],> 100 µM
same,GI50,[9],1.9 µM
same,TGI,[9],> 100 µM
same,GI50,[10],2.06 µM
same,TGI,[10],5.71 µM
same,GI50,[11],2.88 µM
same,TGI,[11],14.1 µM
same,GI50,[12],4.2 µM
same,TGI,[12],> 100 µM
same,GI50,[13],4.06 µM
same,TGI,[13],66.4 µM
same,GI50,[14],2.09 µM
same,TGI,[14],88.4 µM
same,GI50,[15],3.42 µM
same,TGI,[15],63.1 µM
same,GI50,[16],2 µM
same,TGI,[16],9.66 µM
same,GI50,[17],1.13 µM
same,TGI,[17],3.11 µM
same,GI50,[18],1.19 µM
same,TGI,[18],2.9 µM
same,GI50,[19],5.97 µM
same,TGI,[19],> 100 µM
same,GI50,[20],3.44 µM
same,TGI,[20],36.9 µM
same,GI50,[21],1.36 µM
same,TGI,[21],7.9 µM
same,GI50,[22],3.12 µM
same,TGI,[22],> 100 µM
same,GI50,[23],0.7 µM
same,TGI,[23],3.17 µM
same,GI50,[24],2.66 µM
same,TGI,[24],22.8 µM
same,GI50,[25],0.796 µM
same,TGI,[25],> 100 µM
same,GI50,[26],2.81 µM
same,TGI,[26],> 100 µM
same,GI50,[27],3.54 µM
same,TGI,[27],23.3 µM
same,GI50,[28],3.45 µM
same,TGI,[28],> 100 µM
same,GI50,[29],3.34 µM
same,TGI,[29],> 100 µM
same,GI50,[30],2.23 µM
same,TGI,[30],20.2 µM
same,GI50,[31],3.99 µM
same,TGI,[31],> 100 µM
same,GI50,[32],3.3 µM
same,TGI,[32],> 100 µM
same,GI50,[33],3.97 µM
same,TGI,[33],> 100 µM
same,GI50,[34],1.78 µM
same,TGI,[34],> 100 µM
same,GI50,[35],1 µM
same,TGI,[35],2.45 µM
same,GI50,[36],0.186 µM
same,TGI,[36],0.547 µM
same,GI50,[37],4.56 µM
same,TGI,[37],> 100 µM
same,GI50,[38],2.14 µM
same,TGI,[38],7.97 µM
same,GI50,[39],4.14 µM
same,TGI,[39],> 100 µM
same,GI50,[40],2.38 µM
same,TGI,[40],70.9 µM
same,GI50,[41],1.7 µM
same,TGI,[41],3.39 µM
same,GI50,[42],1.08 µM
same,TGI,[42],4.99 µM
same,GI50,[43],0.363 µM
same,TGI,[43],1.32 µM
same,GI50,[44],1.8 µM
same,TGI,[44],6.21 µM
same,GI50,[45],3.11 µM
same,TGI,[45],> 100 µM
same,GI50,[46],4.55 µM
same,TGI,[46],> 100 µM
same,GI50,[47],5.69 µM
same,TGI,[47],> 100 µM
same,GI50,[48],4.3 µM
same,TGI,[48],> 100 µM
same,GI50,[49],12 µM
same,TGI,[49],> 100 µM
same,GI50,[50],2.9 µM
same,TGI,[50],24.9 µM
same,GI50,[51],2.61 µM
same,TGI,[51],9.29 µM
same,GI50,[52],2.83 µM
same,TGI,[52],9.62 µM
same,GI50,[53],3.5 µM
same,TGI,[53],> 100 µM
same,GI50,[54],3.69 µM
same,TGI,[54],10.5 µM
same,GI50,[55],3.28 µM
same,TGI,[55],> 100 µM
same,GI50,[56],0.631 µM
same,TGI,[56],> 100 µM
same,GI50,[57],0.203 µM
same,TGI,[57],0.382 µM
